The values below come from ChEMBL document CHEMBL1138604, “Structure-activity relationships of lipopolysaccharide sequestration in N-alkylpolyamines” (Bioorg Med Chem Lett, 2009).

Calls of active or inactive are those of the source. The calls are words filed in the database; no cut-off is given here.

The test system of the experiment is HEK293. Kind of experiment: Inhibition of LPS-induced NF-kappaB nuclear transactivation in HEK293 cells transfected with TLR4 coexpressing MD2 and CD14 co-receptor assessed as alkaline phosphatase activity by spectrophotometry. The class given is cell-based. The conditions noted are these: Homo sapiens.
Take `CCCCCCCCCCCCCCCCNCCCNCCCNCCCCNCCCN`: the outcome was Active. On to `CCCCCCCCCCCCCCCCNCCCNCCCNCCCCNCCCNCCCN`, for which the outcome was Active.

Take `CCCCCCCCCCCCCCCCNCCCNCCCCNCCCN`: the result was Active. Under `CCCCCCCCCCCCCCCCNCCCNCCCNCCCN` stands “Active”. Turning to `CCCCCCCCCCCCCCCCNCCCNCCCNCCCNCCCNCCCN`, the result was Active. Under `CCCCCCCCCCCCCCCCNCCCNCCCNCCCNCCCN` stands “Active”.
